Measured values: patent US9079876B2, “Imidazole derivatives and preparation method and use thereof” (Beijing Orbiepharm Co., Ltd., priority 2010, dated 2015)

Tests used:
COX-2 = target: T1, COX-2 (Canis lupus familiaris, UniProt Q8SPQ9); experiment: Dog whole blood in vitro activity assay, COX-2; assay type: cell-based, beagle dog; conditions: for IC50: read-out: IC50 (μg/mL) COX-2 (converted)
T1 construct: in vitro activity study using beagle dog whole blood was conducted; from tissue; host or cells: beagle dog whole blood, stimulated with LPS (by the same method as for human blood)
T1 sequence (Q8SPQ9 18-604): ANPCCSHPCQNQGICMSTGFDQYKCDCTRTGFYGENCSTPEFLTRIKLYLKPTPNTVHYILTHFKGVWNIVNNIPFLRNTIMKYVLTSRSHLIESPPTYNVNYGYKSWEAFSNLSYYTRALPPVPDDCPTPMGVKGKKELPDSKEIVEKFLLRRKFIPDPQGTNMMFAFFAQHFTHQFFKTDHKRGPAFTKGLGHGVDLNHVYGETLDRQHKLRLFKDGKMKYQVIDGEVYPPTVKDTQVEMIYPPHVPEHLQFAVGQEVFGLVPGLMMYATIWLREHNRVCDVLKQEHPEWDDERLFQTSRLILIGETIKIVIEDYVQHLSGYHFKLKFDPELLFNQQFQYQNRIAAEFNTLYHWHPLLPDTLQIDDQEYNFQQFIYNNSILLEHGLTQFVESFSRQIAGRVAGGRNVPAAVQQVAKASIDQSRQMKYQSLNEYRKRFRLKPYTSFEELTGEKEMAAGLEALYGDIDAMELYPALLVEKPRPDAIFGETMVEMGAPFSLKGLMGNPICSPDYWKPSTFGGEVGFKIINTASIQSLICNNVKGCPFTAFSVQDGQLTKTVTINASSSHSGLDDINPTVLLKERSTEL

[1] = target: T2, cyclooxygenase-2 (COX-2 enzyme) (Homo sapiens, UniProt P35354); experiment: Human whole blood in vitro activity assay, COX-2 (LPS-induced PGE2 by EIA); assay type: cell-based; conditions: for IC50: LPS, PGE2, read-out: IC50 (μg/mL) COX-2 (converted)
T2 construct: from tissue; host or cells: heparinised human whole blood from healthy volunteers, stimulated with LPS
T2 sequence (P35354 18-604): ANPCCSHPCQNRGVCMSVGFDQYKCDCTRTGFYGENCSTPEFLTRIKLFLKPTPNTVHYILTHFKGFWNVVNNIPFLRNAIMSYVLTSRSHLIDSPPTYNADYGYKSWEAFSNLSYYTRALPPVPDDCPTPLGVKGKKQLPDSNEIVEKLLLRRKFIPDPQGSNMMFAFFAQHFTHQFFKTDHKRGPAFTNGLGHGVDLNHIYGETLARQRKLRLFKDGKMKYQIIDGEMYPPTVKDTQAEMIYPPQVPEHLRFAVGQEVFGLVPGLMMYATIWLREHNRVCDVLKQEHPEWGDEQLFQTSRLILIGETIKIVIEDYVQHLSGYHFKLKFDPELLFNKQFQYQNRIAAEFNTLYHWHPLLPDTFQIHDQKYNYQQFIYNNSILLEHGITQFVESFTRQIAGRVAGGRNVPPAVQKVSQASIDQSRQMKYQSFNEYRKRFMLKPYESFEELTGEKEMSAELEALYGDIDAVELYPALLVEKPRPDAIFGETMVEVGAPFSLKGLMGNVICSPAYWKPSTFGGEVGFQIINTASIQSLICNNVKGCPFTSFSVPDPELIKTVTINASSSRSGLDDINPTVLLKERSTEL
Description: (§1) Human whole blood in vitro activity study: inhibition of activity of cyclooxygenase-1 (COX-1 enzyme) and cyclooxygenase-2 (COX-2 enzyme) in human blood. […] The blood samples were divided into two parts: one was used for detecting COX-1 enzyme activity, and the other was used for detecting COX-2 enzyme activity. The compounds were dissolved in DMSO, and were prepared in advance into 2 μL solutions in respective concentrations of 500, 50, 5, 0.5, 0.05, 0.005, 0.0005 μg/mL. 200 μL whole blood without heparin was added in the tubes containing the compounds, and then incubated at 37° C. for 1 hour. The activity of COX-1 enzyme was detected by determining the amount of thromboxane B2 (TXB2) synthesized by platelet using an EIA kit. Samples tested without the compounds were negative controls. For COX-2, 200 μL whole blood with heparin was added in the tubes containing the compounds and in the tubes containing 10 μg/mL LPS. LPS control and blank control with solvent only were used respectively for determining the maximum value and the background value of the PGE2 produced therefrom. The samples were incubated at 37° C. for 24 hours, and then centrifuged to collect serum/plasma, which was stored at −80° C. for detection by an EIA kit. The EIA kit of Cayman Company was used, the amounts of TXB2 and PGE2 were determined in accordance to the manufacturer's instructions, and the activities of COX-1 and COX-2 were tested respectively.

COX-1 = target: T3, COX-1 (Canis lupus familiaris, UniProt Q8HZR1); experiment: Dog whole blood in vitro activity assay, COX-1; assay type: cell-based, beagle dog; conditions: read-out: IC50 (μg/mL) COX-1 (converted)
T3 construct: in vitro activity study using beagle dog whole blood was conducted; from tissue; host or cells: beagle dog whole blood (platelets, by the same method as for human blood)
T3 sequence (Q8HZR1 28-603): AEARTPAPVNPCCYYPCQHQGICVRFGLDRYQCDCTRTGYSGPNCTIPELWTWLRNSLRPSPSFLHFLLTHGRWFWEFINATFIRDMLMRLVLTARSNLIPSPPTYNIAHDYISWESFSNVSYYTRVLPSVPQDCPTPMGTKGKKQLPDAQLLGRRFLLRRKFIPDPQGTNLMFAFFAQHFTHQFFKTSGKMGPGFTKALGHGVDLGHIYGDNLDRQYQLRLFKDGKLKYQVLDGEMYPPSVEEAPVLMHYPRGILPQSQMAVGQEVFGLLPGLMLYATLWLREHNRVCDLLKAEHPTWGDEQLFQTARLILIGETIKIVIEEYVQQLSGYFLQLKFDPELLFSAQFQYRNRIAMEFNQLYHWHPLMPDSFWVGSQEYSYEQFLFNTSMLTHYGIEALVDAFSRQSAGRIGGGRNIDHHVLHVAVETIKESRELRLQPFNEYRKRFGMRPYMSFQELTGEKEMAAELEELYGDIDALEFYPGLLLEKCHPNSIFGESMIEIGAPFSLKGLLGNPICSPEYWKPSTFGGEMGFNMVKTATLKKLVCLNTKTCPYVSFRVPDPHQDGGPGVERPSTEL

[2] = Pharmacokinetic study, intravenous, rats; assay type: in vivo; conditions: male SD rats, IV 2 mg/kg
Description: Cimicoxib (cimicoxib) was IV administrated to male SD rats in vivo [2 mg/kg, 2 mg/ml, menstruum: DMSO/PEG 400/30% HP-b-CD ([…])], T1/2 was 3.20 h. The half-life of compound 1 was longer than cimicoxib.

[3] = target: T4, cyclooxygenase-1 (COX-1 enzyme) (Homo sapiens, UniProt P23219); experiment: Human whole blood in vitro activity assay, COX-1 (TXB2 by EIA); assay type: cell-based; conditions: read-out: IC50 (μg/mL) COX-1 (converted)
T4 construct: from tissue; host or cells: human whole blood without heparin (platelets) from healthy volunteers
Description: as §1

T4 sequence (P23219 24-599): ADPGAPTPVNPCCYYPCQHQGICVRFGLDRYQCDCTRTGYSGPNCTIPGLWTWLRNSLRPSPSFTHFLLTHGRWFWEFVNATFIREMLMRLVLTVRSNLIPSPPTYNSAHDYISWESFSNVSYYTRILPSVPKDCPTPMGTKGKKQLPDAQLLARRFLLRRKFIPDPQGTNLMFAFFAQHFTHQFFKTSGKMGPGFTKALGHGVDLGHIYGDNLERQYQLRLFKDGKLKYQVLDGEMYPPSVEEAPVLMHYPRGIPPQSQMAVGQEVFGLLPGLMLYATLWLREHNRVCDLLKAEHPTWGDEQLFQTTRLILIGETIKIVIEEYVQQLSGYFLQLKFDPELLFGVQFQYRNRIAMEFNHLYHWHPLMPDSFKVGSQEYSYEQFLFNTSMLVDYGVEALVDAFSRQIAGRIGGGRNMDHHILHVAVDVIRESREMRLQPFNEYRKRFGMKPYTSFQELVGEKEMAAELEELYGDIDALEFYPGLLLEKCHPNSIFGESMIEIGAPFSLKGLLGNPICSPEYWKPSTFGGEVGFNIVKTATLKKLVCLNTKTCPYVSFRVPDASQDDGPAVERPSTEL

Row | IC50COX-1/IC50COX-2 (COX-2) | IC50 (COX-2) | IC50COX-1/IC50COX-2 [1] | IC50 [1] | IC50 (COX-1) | t1/2 [2] | AUC(0-t) ([2]; rat, in vivo) | C0 ([2]; rat, in vivo) | clearance ([2]; rat, in vivo) | half-life ([2]; rat, in vivo, 2 mg/ml, DMSO/PEG 400/30% HP-b-CD) | Vd ([2]; rat, in vivo, read-out: Vss) | IC50 [3] | SMILES
1 | 9.5 | 1.65 µM | 8.8 | 0.471 µM | 15.6 µM | 3.20 ± 0.80 h | 12000 ± 4400 ng·h/mL | 1980 ± 140 ng/mL | 2.99 ± 0.92 mL/min/kg | 3.2 h | 0.773 ± 0.145 L/kg | 4.16 µM | COc1ccc(-c2c(Cl)ncn2-c2ccc(S(N)(=O)=O)cc2)cc1F [Cimicoxib, reference compound]
2 | 239.6 | 2.31 µM | 247.2 | 0.253 µM | 553 µM |  |  |  |  |  |  | 62.5 µM | COc1ccc(-c2c(Cl)ncn2-c2ccc(S(C)(=O)=O)nc2)cc1 [Compound 9, 5-(4-chloro-5-(4-methoxyphenyl)-1H-imidazol-1-yl)-2-(methylsulfonyl)pyridine]
3 | 21.4 | 2.62 µM | 21.8 | 0.512 µM | 55.9 µM |  |  |  |  |  |  | 11.2 µM | CS(=O)(=O)c1ccc(-n2cnc(Cl)c2-c2ccc(F)cc2)nc1 [Compound 2, 2-(4-chloro-5-(4-fluorophenyl)-1H-imidazol-1-yl)-5-(methylsulfonyl)pyridine]
4 |  |  | 26.2 | 1.74 µM |  |  |  |  |  |  |  | 45.6 µM | CS(=O)(=O)c1ccc(-n2cnc(Cl)c2-c2ccc(Cl)cc2Cl)nc1 [Compound 4, 2-(4-chloro-5-(2,4-dichlorophenyl)-1H-imidazol-1-yl)-5-(methylsulfonyl)pyridine]
5 |  |  |  | > 1670 µM |  |  |  |  |  |  |  | 187 µM | CS(=O)(=O)c1ccc(-n2cncc2-c2ccccc2)cn1 [Compound 8E, 2-(methylsulfonyl)-5-(5-phenyl-1H-imidazol-1-yl)pyridine]
6 |  |  | 58.8 | 3.14 µM |  |  |  |  |  |  |  | 185 µM | COc1ccc(-c2c(Cl)ncn2-c2ccc(S(C)(=O)=O)nc2)cc1F [Compound 10, 5-(4-chloro-5-(3-fluoro-4-methoxyphenyl)-1H-imidazol-1-yl)-2-(methylsulfonyl)pyridine]
7 |  |  | 135.9 | 1.54 µM |  |  |  |  |  |  |  | 209 µM | CS(=O)(=O)c1ccc(-n2cnc(Cl)c2-c2ccc(F)cc2)cn1 [Compound 12, 5-(4-chloro-5-(4-fluorophenyl)-1H-imidazol-1-yl)-2-(methylsulfonyl)pyridine]

Row | SMILES | IC50COX-1/IC50COX-2 (COX-2) | IC50 (COX-2) | IC50COX-1/IC50COX-2 [1] | IC50 [1] | IC50 (COX-1) | t1/2 [2] | AUC(0-t) ([2]; rat, in vivo) | C0 ([2]; rat, in vivo) | clearance ([2]; rat, in vivo) | half-life ([2]; rat, in vivo, 2 mg/ml, DMSO/PEG 400/30% HP-b-CD) | Vd ([2]; rat, in vivo, read-out: Vss) | IC50 [3]
8 | Cc1ccc(-c2c(Cl)ncn2-c2ccc(S(C)(=O)=O)cn2)cc1 [Compound 3, 2-(4-chloro-5-p-tolyl-1H-imidazol-1-yl)-5-(methylsulfonyl)pyridine] | 18.8 | 1.61 µM | 76.2 | 0.259 µM | 30.2 µM |  |  |  |  |  |  | 19.7 µM
